For series [1] the following is noted: human, in vivo.
Experimental: (§1) A randomized, double-blind, placebo-controlled study in healthy adult volunteers was conducted in which a total of 56 subjects were randomized to receive 4 days' treatment with DMF 240 mg BID, DMF 240 mg TID, DMF 360 mg BID or placebo, with aspirin 325 mg or matching aspirin placebo administered 30 minutes before each DMF or DMF placebo dose. An additional 8 patients were assigned to a modified dosing group receiving DMF 120 mg or placebo 6 times daily (3 doses at hourly intervals in the morning and a further 3 doses at hourly intervals in the evening). There were 6 subjects per group, except for the modified dosing regimen, where an additional 2 subjects were assigned to placebo.
(§2) Flushing severity was assessed by 2 validated subject-reported measures, the global Flushing Severity Scale (GFSS) and the Flushing Severity Scale (FSS), which are adapted from the flushing scale described in Norquist J M, et al. Curr Med Res Opin 23:1547-1560 (2007). Both of these measures rate flushing severity on a scale of 0-10, where 0=no flushing, 1-3=mild flushing, 4-6=moderate flushing, 7-9=severe flushing, and 10=extreme flushing. The GFSS is a visual-analogue scale measuring redness, warmth, tingling and itching of the skin experienced over the preceding 24 h. Subjects completed the GFSS immediately before the first dose of study drug (0 h) on days 1 to 4, again at 0 h on day 5 and once more at follow-up on day 11. On the FSS, subjects rated their overall flushing and 4 items describing specific flushing symptoms (redness, warmth, tingling, itching) at the time of administration of the questionnaire. The FSS scale was administered at 16 time points over 12 h (Hours 0, 0.5, 1, 1.5, 2, 2.5, 3, 4, 5, 6, 7, 8, 9, 10, 11, 12) on days 1 to 4 and once on day 5 (24 h after the first day 4 dose) to assess the quality and intensity of subject-reported flushing symptoms in real time. Subjects rated 5 items relating only to the period since they last answered the questionnaire and/or received study drug.
Series [2] can be described thus: PK of DMF with or without aspirin in healthy adult volunteers, plasma MMF. The class given is in vivo, human. Conditions: aspirin 325 mg 30 minutes before each DMF dose. The method, then:
The concentration of MMF was determined by high pressure liquid chromatography with tandem mass spectrometry, using […] as the internal standard. Further pharmacokinetic parameters were derived by non-compartmental analysis

Series [3] in a line: Laser Doppler perfusion of facial skin during flushing. Format: in vivo, human. The settings on record: aspirin pretreatment before DMF. On the procedure: Laser Doppler perfusion was used as an exploratory quantitative measure of facial skin perfusion during flushing. This technique uses non-invasive imaging of superficial tissue blood perfusion, recorded as Blood Perfusion Units on a relative units scale. Laser Doppler perfusion was measured at the same 16 timepoints as the FSS.

Series [4] in a line: Subject-reported flushing severity (GFSS, FSS). The settings on record: 325 mg non-enteric coated aspirin 30 minutes prior to DMF dosing, healthy volunteer study.
Experimental: as §1, §2

Here are results for 2 compounds from patent US20130216615A1, “Pharmaceutical Compositions Containing Dimethyl Fumarate” (priority 2012, published 2013).

Where a name gives a salt, the structure may show the parent alone.

Take `COC(=O)/C=C/C(=O)OC` [DMF, dimethyl fumarate]: the “flushing severity on the FSS” value in series [1] is “mild to moderate”. Also, the “mean GFSS score” value in series [1] (2 day) is 1.5-3.5.
In the case of `CC(=O)Oc1ccccc1C(=O)O` [aspirin], the “effect of aspirin pretreatment on MMF concentration-time profiles” value in series [2] is “no apparent effect”. For the same compound, the “magnitude of Doppler perfusion response” value in series [3] is on record as “decreased”. Besides, in series [4], the “occurrence and severity of flushing” value was “reduce the occurrence and severity of flushing”.
